Patent US9833497B2, “Human originated EGF domain proteins and use of the same” (CHENGDU SOURCEBIO LIMITED-LIABILITY COMPANY, priority 2013, dated 2017)

How the values were obtained:
Format in all cases: cell-based
Pseudomonas aeruginosa = test: MIC against Gram-negative bacteria: Pseudomonas aeruginosa
Method in brief: (§1)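 Bacteria grown in LB at 37° C with shaking to McFarland 0.5, pelleted and resuspended in fresh LB, then seeded at 5×10^5 CFU/mL per well. Purified recombinant human EGF domain proteins were two-fold serially diluted in triplicate and plates shaken at 37° C, 175 rpm. MIC is the lowest protein concentration with no bacterial growth.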

E. coli BL21 = test: MIC against Gram-negative bacteria: E. coli BL21
Method in brief: as §1

Enterobacter cloacae = test: MIC against Gram-negative bacteria: Enterobacter cloacae
Method in brief: as §1

Serratia marcescens = test: MIC against Gram-negative bacteria: Serratia marcescens
Method in brief: as §1

Proteus vulgaris = test: MIC against Gram-negative bacteria: Proteus vulgaris
Method in brief: as §1

E. coli DH5α = test: Antibacterial activity: MIC and growth curve against E. coli DH5α in 96-well plate; settings: minimal inhibitory concentration against E. coli DH5α; 96-well plate, 5×10^5 CFU/mL, 37° C., judged after 8 h
Method in brief: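 Log-phase bacteria (OD600 ~0.5) resuspended in LB at 5×10^5 CFU/mL, exposed to recombinant protein at 50, 25, 12.5 μg/mL final in triplicate, 37 °C shaking at 175 rpm. OD600 read every 30 min; MIC is lowest concentration showing no growth.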

Aeromonas hydrophila = test: MIC against Gram-negative bacteria: Aeromonas hydrophila
Method in brief: as §1

Klebsiella pneumonia = test: MIC against Gram-negative bacteria: Klebsiella pneumonia
Method in brief: as §1

Proteus mirabilis = test: MIC against Gram-negative bacteria: Proteus mirabilis
Method in brief: as §1

Citrobacter diversus = test: MIC against Gram-negative bacteria: Citrobacter diversus
Method in brief: as §1

Moraxella catarrhalis = test: MIC against Gram-negative bacteria: Moraxella catarrhalis
Method in brief: as §1

[1] = 96-well plate, 5×10^5 CFU/mL, 37° C., 10 h
[2] = P. aeruginosa, 10 h cultivation at 37° C.
[3] = E. coli BL21, 10 h cultivation at 37° C.
[4] = E. cloacae, 10 h cultivation at 37° C.
[5] = S. marcescens, 10 h cultivation at 37° C.
[6] = P. vulgaris, 10 h cultivation at 37° C.
[7] = A. hydrophila, 10 h cultivation at 37° C.
[8] = K. pneumonia, 10 h cultivation at 37° C.
[9] = P. mirabilis, 10 h cultivation at 37° C.
[10] = C. diversus, 10 h cultivation at 37° C.
[11] = M. catarrhalis, 10 h cultivation at 37° C.

PRT595 (CSCHASGVSPMECPPGGGACLCDPVTGACPCLPNVTGLACDRCADGYWNLVPGRGCQS; listed as Homo sapiens)
50 µg/mL: MIC E. coli BL21 (E. coli BL21; [1]) | MIC P. vulgaris (Proteus vulgaris; [1]) | MIC A. hydrophila (Aeromonas hydrophila; [1]) | MIC K. pneumonia (Klebsiella pneumonia; [1]) | MIC M. catarrhalis (Moraxella catarrhalis; [1])
25 µg/mL: MIC S. marcescens (Serratia marcescens; [1])
12.5 µg/mL: MIC P. aeruginosa (Pseudomonas aeruginosa; [1]) | MIC E. cloacae (Enterobacter cloacae; [1]) | MIC (E. coli DH5α) | MIC P. mirabilis (Proteus mirabilis; [1]) | MIC C. diversus (Citrobacter diversus; [1])

PRT1037 (DCSRPCPPGRQKSPRDPCQCVCHGSAVTTQDCC; listed as Homo sapiens)
25 µg/mL: MIC (Enterobacter cloacae; [4]) | MIC (Aeromonas hydrophila; [7]) | MIC (Moraxella catarrhalis; [11])
50 µg/mL: MIC (Pseudomonas aeruginosa; [2]) | MIC (E. coli BL21; [3]) | MIC (Serratia marcescens; [5]) | MIC (Proteus vulgaris; [6]) | MIC (Citrobacter diversus; [10])
12.5 µg/mL: MIC (E. coli DH5α) | MIC (Klebsiella pneumonia; [8]) | MIC (Proteus mirabilis; [9])

PRT994 (DHNECLSQPCHPGSTCLDLLATFHCLCPPGLEGQLCE; listed as Homo sapiens)
50 µg/mL: MIC (Proteus vulgaris; [6]) | MIC (E. coli DH5α) | MIC (Klebsiella pneumonia; [8]) | MIC (Citrobacter diversus; [10])
12.5 µg/mL: MIC (E. coli BL21; [3]) | MIC (Aeromonas hydrophila; [7]) | MIC (Moraxella catarrhalis; [11])
25 µg/mL: MIC (Pseudomonas aeruginosa; [2]) | MIC (Enterobacter cloacae; [4]) | MIC (Serratia marcescens; [5]) | MIC (Proteus mirabilis; [9])

PRT1456 (DYDECERKEDDCVPGTSCRNTLGSFTCSCEGGAPDFPVEYSE; listed as Homo sapiens)
50 µg/mL: MIC against K. pneumonia (Klebsiella pneumonia; Klebsiella pneumonia, 5×10^5 CFU/mL, 10 h cultivation at 37° C.) | MIC against M. catarrhalis (Moraxella catarrhalis; Moraxella catarrhalis, 5×10^5 CFU/mL, 10 h cultivation at 37° C.)
25 µg/mL: MIC against E. coli BL21 (E. coli BL21; E. coli BL21, 5×10^5 CFU/mL, 10 h cultivation at 37° C.) | MIC against E. cloacae (Enterobacter cloacae; Enterobacter cloacae, 5×10^5 CFU/mL, 10 h cultivation at 37° C.) | MIC against C. diversus (Citrobacter diversus; Citrobacter diversus, 5×10^5 CFU/mL, 10 h cultivation at 37° C.)
12.5 µg/mL: MIC against P. aeruginosa (Pseudomonas aeruginosa; Pseudomonas aeruginosa, 5×10^5 CFU/mL, 10 h cultivation at 37° C.) | MIC against S. marcescens (Serratia marcescens; Serratia marcescens, 5×10^5 CFU/mL, 10 h cultivation at 37° C.) | MIC against P. vulgaris (Proteus vulgaris; Proteus vulgaris, 5×10^5 CFU/mL, 10 h cultivation at 37° C.) | MIC (E. coli DH5α) | MIC against A. hydrophila (Aeromonas hydrophila; Aeromonas hydrophila, 5×10^5 CFU/mL, 10 h cultivation at 37° C.) | MIC against P. mirabilis (Proteus mirabilis; Proteus mirabilis, 5×10^5 CFU/mL, 10 h cultivation at 37° C.)

PRT153 (DCLACQGGSQRPCSGNGHCSGDGSRQGDGSCRCHMGYQGPLCT; listed as Homo sapiens)
12.5 µg/mL: MIC (μg/mL) P. vulgaris (Proteus vulgaris; P. vulgaris, 10 h cultivation at 37° C., 5×10^5 CFU/mL) | MIC (E. coli DH5α) | MIC (μg/mL) K. pneumonia (Klebsiella pneumonia; K. pneumonia, 10 h cultivation at 37° C., 5×10^5 CFU/mL) | MIC (μg/mL) M. catarrhalis (Moraxella catarrhalis; M. catarrhalis, 10 h cultivation at 37° C., 5×10^5 CFU/mL)
50 µg/mL: MIC (μg/mL) P. aeruginosa (Pseudomonas aeruginosa; P. aeruginosa, 10 h cultivation at 37° C., 5×10^5 CFU/mL) | MIC (μg/mL) S. marcescens (Serratia marcescens; S. marcescens, 10 h cultivation at 37° C., 5×10^5 CFU/mL) | MIC (μg/mL) A. hydrophila (Aeromonas hydrophila; A. hydrophila, 10 h cultivation at 37° C., 5×10^5 CFU/mL) | MIC (μg/mL) P. mirabilis (Proteus mirabilis; P. mirabilis, 10 h cultivation at 37° C., 5×10^5 CFU/mL)
25 µg/mL: MIC (μg/mL) E. cloacae (Enterobacter cloacae; E. cloacae, 10 h cultivation at 37° C., 5×10^5 CFU/mL) | MIC (μg/mL) C. diversus (Citrobacter diversus; C. diversus, 10 h cultivation at 37° C., 5×10^5 CFU/mL)
100 µg/mL: MIC (μg/mL) E. coli BL21 (E. coli BL21; E. coli BL21, 10 h cultivation at 37° C., 5×10^5 CFU/mL)
